From PubChem BioAssay AID566 (University of Pittsburgh Molecular Library Screening Center, 2006)
The source made the active and inactive calls. The rule behind the calls is not given here.

Target: Dual specificity protein phosphatase 6 (Rattus norvegicus) (UniProt Q64346)
Assay: reproducibility of MKP-3 inhibition curves – biochemical, rat DUSP6, reproducibility testing, probe assessment, dose response (AID 566)
Settings: recombinant MKP-3 phosphatase, fluorescence substrate

Dual specificity protein phosphatase 6 (Rattus norvegicus), sequence (Q64346 whole entry, looked up): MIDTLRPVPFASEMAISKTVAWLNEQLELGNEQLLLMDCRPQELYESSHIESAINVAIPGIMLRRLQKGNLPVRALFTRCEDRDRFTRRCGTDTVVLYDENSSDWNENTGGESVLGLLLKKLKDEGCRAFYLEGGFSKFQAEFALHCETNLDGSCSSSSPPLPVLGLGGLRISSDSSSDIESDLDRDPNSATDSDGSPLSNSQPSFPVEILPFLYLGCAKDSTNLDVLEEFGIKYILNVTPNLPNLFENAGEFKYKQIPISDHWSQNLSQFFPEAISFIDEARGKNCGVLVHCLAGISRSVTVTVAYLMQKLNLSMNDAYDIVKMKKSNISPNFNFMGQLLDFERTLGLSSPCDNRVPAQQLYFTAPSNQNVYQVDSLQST

IC50: > 50 µM (inactive)
Structure (SMILES): O=C1C(C2=C(O)c3ccccc3C2=O)=Nc2ccccc21
